Assay results from patent US8778982B2, “Synergistic microbicidal compositions” (Rohm and Haas Company, priority 2007, dated 2014).
Values joined by “and” are separate entries in the source; they are usually repeats but may differ in a detail not shown here. Equal values may be shown once. Read-outs that look alike come from different tables or passages of the source.

Experiments:
Assay type in all cases: cell-based
[1] = tested on: Escherichia coli (E. coli—ATCC #8739); experiment: Synergy test, microtiter plate high resolution MIC assay, M9GY medium, bacterium; details: for Qb: B alone where Qa = 0; for MIC: Escherichia coli
Text: (§1) One measure of synergism is the industrially accepted method described by Kull, F. C.; Eisman, P. C.; Sylwestrowicz, H. D. and Mayer, R. L., in Applied Microbiology 9:538-541 (1961), using the ratio determined by the formula: Qa/QA+Qb/QB=Synergy Index(“SI”) wherein: • QA=concentration of compound A (first component) in ppm, acting alone, which produced an end point (MIC of Compound A). • Qa=concentration of compound A in ppm, in the mixture, which produced an end point. • QB=concentration of compound B (second component) in ppm, acting alone, which produced an end point (MIC of Compound B). • Qb=concentration of compound B in ppm, in the mixture, which produced an end point.
(§2) When the sum of Qa/QA and Qb/QB is greater than one, antagonism is indicated. […] The lower the SI, the greater is the synergy shown by that particular mixture. The minimum inhibitory concentration (MIC) of a microbicide is the lowest concentration tested under a specific set of conditions that prevents the growth of the tested microorganisms.
(§3) Synergy tests were conducted using standard microtiter plate assays with media designed for optimal growth of the test microorganism. Minimal salt medium supplemented with 0.2% glucose and 0.1% yeast extract (M9GY medium) was used for testing bacteria; Potato Dextrose Broth (PDB medium) was used for testing yeast and mold. In this method, a wide range of combinations of microbicides and other personal care raw materials was tested by conducting high resolution MIC assays in the presence of various concentrations of CMIT/MIT, MIT, or BIT. High resolution MICs were determined by adding varying amounts of microbicide to one column of a microtitre plate and doing subsequent […] dilutions using an automated liquid handling system to obtain a series of endpoints ranging from 2 ppm to 10,000 ppm active ingredient.
(§4) The synergy of the combinations of the present invention was determined against a bacterium, Escherichia coli (E. coli—ATCC #8739), a yeast, Candida albicans (C. albicans—ATCC 10231), and a mold, Aspergillus niger (A. niger—ATCC 16404). The bacteria were used at a concentration of about 5×10^6 bacteria per mL and the yeast and mold at 5×10^5 fungi per mL. These microorganisms are representative of natural contaminants in many consumer and industrial applications. […] (yeast and mold) or 30° C. (bacteria).

[2] = tested on: Candida albicans (C. albicans—ATCC 10231); experiment: Synergy test, microtiter plate high resolution MIC assay, PDB medium, yeast; details: for Qb: B alone where Qa = 0; for MIC: Candida albicans
Text: as §1, §2, §3, §4

[3] = tested on: Aspergillus niger (A. niger—ATCC 16404); experiment: Synergy test, microtiter plate high resolution MIC assay, PDB medium, mold; details: for Qb: B alone where Qa = 0; for MIC: Aspergillus niger
Text: as §1, §2, §3, §4

[4] = E. coli 8739 - M9GY (1 day), A = MIT, B = Myristamidopropyl PG-dimonium chloride phosphate
[5] = C. albicans 10231 - PDB (6 days), A = MIT, B = Myristamidopropyl PG-dimonium chloride phosphate
[6] = A. niger 16404 - PDB (3 days), A = MIT, B = Myristamidopropyl PG-dimonium chloride phosphate
[7] = E. coli 8739 - M9GY (1 day), A = BIT, B = Caprylic acid
[8] = C. albicans 10231 - PDB (6 days), A = BIT, B = Caprylic acid
[9] = A. niger 16404 - PDB (3 days), A = BIT, B = Caprylic acid
[10] = ATCC8739, 48 h, E. coli 8739, M9GY, 2 days, 30° C., read-out: MIC of the component acting alone (QA or QB)
[11] = ATCC16404, 72 h, A. niger 16404, PDB, 3 days, 25° C., read-out: MIC of the component acting alone (QA or QB)
[12] = E. coli 8739 - M9GY (6 days), A = MIT, B = Ethylhexylglycerin
[13] = ATCC8739, 24 h, read-out: MIC of the component acting alone (QA or QB)
[14] = C. albicans 10231 - PDB (6 days), A = MIT, B = Ethylhexylglycerin
[15] = ATCC10231, 24 h, read-out: MIC of the component acting alone (QA or QB)
[16] = A. niger 16404 - PDB (10 days), A = MIT, B = Ethylhexylglycerin
[17] = ATCC16404, 72 h, read-out: MIC of the component acting alone (QA or QB)

Compound: 1-propanaminium, 3,3′,3″-[phosphinylidynetris(oxy)]-tris-[N-(aminopropyl)-2-hydroxy-N,N-dimethyl-N,N′,N″-tri-C6-18 acyl deriv. trichlorides
- MIC of the component acting alone (Qa or Qb with the other component at 0) ([1]; E. coli 8739, M9GY, 1 day): 80 ppm
- SI (synergy index) ([1]; E. coli 8739, M9GY, 1 day): 1.00
- Synergy Index (SI) = Qa/QA+Qb/QB ([1]; E. coli 8739, M9GY, 2 days): 1.00
- MIC of the component acting alone (QA or QB) ([1]; E. coli 8739, M9GY, 2 days, 30° C.): 100 ppm
- SI [1, 4]: 1.00
- Qb [1, 4]: 80 ppm
- Synergy Index (SI) = Qa/QA+Qb/QB ([2]; C. albicans 10231, PDB, 1 day): 1.00
- MIC of the component acting alone (QA or QB) ([2]; C. albicans 10231, PDB, 1 day, 25° C.): 800 ppm
- MIC of the component acting alone (Qa or Qb with the other component at 0) ([2]; C. albicans 10231, PDB, 2 days): 2000 ppm
- SI (synergy index) ([2]; C. albicans 10231, PDB, 2 days): 1.00
- SI [2, 5]: 1.00
- Qb [2, 5]: 1000 ppm
- Synergy Index (SI) = Qa/QA+Qb/QB ([3]; A. niger 16404, PDB, 3 days): 1.00
- MIC of the component acting alone (QA or QB) ([3]; A. niger 16404, PDB, 3 days, 25° C.): 2000 ppm
- MIC of the component acting alone (Qa or Qb with the other component at 0) ([3]; A. niger 16404, PDB, 4 days): 2000 ppm
- SI (synergy index) ([3]; A. niger 16404, PDB, 4 days): 1.00
- SI [3, 6]: 1.00
- Qb [3, 6]: 2000 ppm

Compound: O=c1[nH]sc2ccccc12 [BIT, 1,2-benzisothiazolin-3-one]
- MIC of the component acting alone (Qa or Qb with the other component at 0) ([1]; E. coli 8739, M9GY, 1 day): 20.00 ppm
- SI (synergy index) ([1]; E. coli 8739, M9GY, 1 day): 1.00
- MIC of the component acting alone (Qa or Qb with the other component at 0) ([1]; E. coli 8739, M9GY, 2 days): 20.00 ppm
- SI (synergy index) ([1]; E. coli 8739, M9GY, 2 days): 1.00
- SI [1, 7]: 1.00
- Qa ([1]; E. coli 8739 - M9GY (1 day), A = BIT, B = Caprylic acid, A alone where Qb = 0): 20 ppm
- MIC of the component acting alone (Qa or Qb with the other component at 0) ([2]; C. albicans 10231, PDB, 1 day): 15.00 ppm
- SI (synergy index) ([2]; C. albicans 10231, PDB, 1 day): 1.00
- MIC of the component acting alone (Qa or Qb with the other component at 0) ([2]; C. albicans 10231, PDB, 2 days): 30.00 ppm
- SI (synergy index) ([2]; C. albicans 10231, PDB, 2 days): 1.00
- MIC of the component acting alone (Qa or Qb with the other component at 0) ([2]; C. albicans 10231, PDB, 6 days): 30.00 ppm and 40.00 ppm
- SI (synergy index) ([2]; C. albicans 10231, PDB, 6 days): 1.00
- SI [2, 8]: 1.00
- Qa ([2]; C. albicans 10231 - PDB (6 days), A = BIT, B = Caprylic acid, A alone where Qb = 0): 20 ppm
- MIC of the component acting alone (Qa or Qb with the other component at 0) ([3]; A. niger 16404, PDB, 3 days): 50 ppm
- SI (synergy index) ([3]; A. niger 16404, PDB, 3 days): 1.00
- MIC of the component acting alone (Qa or Qb with the other component at 0) ([3]; A. niger 16404, PDB, 4 days): 50 ppm
- SI (synergy index) ([3]; A. niger 16404, PDB, 4 days): 1.00
- MIC of the component acting alone (Qa or Qb with the other component at 0) ([3]; A. niger 16404, PDB, 10 days): 100.00 ppm
- SI (synergy index) ([3]; A. niger 16404, PDB, 10 days): 1.00
- SI [3, 9]: 1.00
- Qa ([3]; A. niger 16404 - PDB (3 days), A = BIT, B = Caprylic acid, A alone where Qb = 0): 50 ppm

Compound: CCCCCCCC(=O)O [Caprylic acid, octanoic acid]
- Synergy Index (SI) = Qa/QA+Qb/QB ([1]; E. coli 8739, M9GY, 1 day): 1.00
- Synergy Index (SI) = Qa/QA+Qb/QB ([1]; E. coli 8739, M9GY, 2 days): 1.00
- SI [1, 7]: 1.00
- Qb [1, 7]: 8000 ppm
- MIC ([1]; ATCC8739, 24 h, E. coli 8739, M9GY, 1 day, 30° C., read-out: MIC of the component acting alone (QA or QB)): 8000 µg/mL
- MIC [1, 10]: 8000 µg/mL
- Synergy Index (SI) = Qa/QA+Qb/QB ([2]; C. albicans 10231, PDB, 6 days): 1.00
- SI [2, 8]: 1.00
- Qb [2, 8]: 2000 ppm
- MIC ([2]; ATCC10231, 144 h, C. albicans 10231, PDB, 6 days, 25° C., read-out: MIC of the component acting alone (QA or QB)): 2000 µg/mL
- Synergy Index (SI) = Qa/QA+Qb/QB ([3]; A. niger 16404, PDB, 3 days): 1.00
- Synergy Index (SI) = Qa/QA+Qb/QB ([3]; A. niger 16404, PDB, 10 days): 1.00
- SI [3, 9]: 1.00
- Qb [3, 9]: 2000 ppm
- MIC [3, 11]: 2000 µg/mL
- MIC ([3]; ATCC16404, 240 h, A. niger 16404, PDB, 10 days, 25° C., read-out: MIC of the component acting alone (QA or QB)): 2000 µg/mL

Compound: CCCCCCC(O)CO (stereo not drawn) [Caprylyl glycol, 1,2-octanediol]
- Synergy Index (SI) = Qa/QA+Qb/QB ([1]; E. coli 8739, M9GY, 2 days): 1.00
- MIC [1, 10]: 2000 µg/mL
- Synergy Index (SI) = Qa/QA+Qb/QB ([2]; C. albicans 10231, PDB, 1 day): 1.00
- MIC ([2]; ATCC10231, 24 h, C. albicans 10231, PDB, 1 day, 25° C., read-out: MIC of the component acting alone (QA or QB)): 3000 µg/mL
- Synergy Index (SI) = Qa/QA+Qb/QB ([3]; A. niger 16404, PDB, 3 days): 1.00
- MIC [3, 11]: 3000 µg/mL

Compound: CCCCC(CC)COCC(O)CO (stereo not drawn) [Ehylhexylglycerin]
- MIC of the component acting alone (Qa or Qb with the other component at 0) ([1]; E. coli 8739, M9GY, 2 days): 3000 ppm
- SI (synergy index) ([1]; E. coli 8739, M9GY, 2 days): 1.00
- MIC of the component acting alone (Qa or Qb with the other component at 0) ([2]; C. albicans 10231, PDB, 6 days): 10000 ppm
- SI (synergy index) ([2]; C. albicans 10231, PDB, 6 days): 1.00
- MIC of the component acting alone (Qa or Qb with the other component at 0) ([3]; A. niger 16404, PDB, 3 days): 2000 ppm
- SI (synergy index) ([3]; A. niger 16404, PDB, 3 days): 1.00

Compound: CCCCC(CC)COCC(O)CO (stereo not drawn) [Ethylhexylglycerin, 3-[(2-ethylhexyl)oxy]-1,2propanediol]
- Synergy Index (SI) = Qa/QA+Qb/QB ([1]; E. coli 8739, M9GY, 1 day): 1.00
- SI [1, 12]: 1.00
- Qb [1, 12]: 3000 ppm
- MIC [1, 13]: 3000 µg/mL
- Synergy Index (SI) = Qa/QA+Qb/QB ([2]; C. albicans 10231, PDB, 1 day): 1.00
- SI [2, 14]: 1.00
- Qb [2, 14]: 2000 ppm
- MIC [2, 15]: 2000 µg/mL
- Synergy Index (SI) = Qa/QA+Qb/QB ([3]; A. niger 16404, PDB, 3 days): 1.00
- SI [3, 16]: 1.00
- Qb [3, 16]: 2000 ppm
- MIC [3, 17]: 2000 µg/mL

Compound: CCCCCCCCCCCC(=O)OCC(O)CO (stereo not drawn) [Glycerol monolaurate]
- SI (synergy index) ([1]; E. coli 8739, M9GY, 1 day): 1.00
- Synergy Index (SI) = Qa/QA+Qb/QB ([1]; E. coli 8739, M9GY, 1 day): 1.00
- MIC [1, 13]: 20000 µg/mL
- MIC ([1]; ATCC8739, 24 h, read-out: MIC of the component acting alone (Qa or Qb with the other component at 0)): 20000 µg/mL
- Synergy Index (SI) = Qa/QA+Qb/QB ([2]; C. albicans 10231, PDB, 1 day): 1.00
- SI (synergy index) ([2]; C. albicans 10231, PDB, 6 days): 1.00
- Synergy Index (SI) = Qa/QA+Qb/QB ([2]; C. albicans 10231, PDB, 6 days): 1.00
- MIC [2, 15]: 20000 µg/mL
- MIC ([2]; ATCC10231, 144 h, read-out: MIC of the component acting alone (QA or QB)): 20000 µg/mL
- MIC ([2]; ATCC10231, 144 h, read-out: MIC of the component acting alone (Qa or Qb with the other component at 0)): 20000 µg/mL
- Synergy Index (SI) = Qa/QA+Qb/QB ([3]; A. niger 16404, PDB, 3 days): 1.00
- SI (synergy index) ([3]; A. niger 16404, PDB, 10 days): 1.00
- Synergy Index (SI) = Qa/QA+Qb/QB ([3]; A. niger 16404, PDB, 10 days): 1.00
- MIC [3, 17]: 20000 µg/mL
- MIC ([3]; ATCC16404, 240 h, read-out: MIC of the component acting alone (QA or QB)): 20000 µg/mL
- MIC ([3]; ATCC16404, 240 h, read-out: MIC of the component acting alone (Qa or Qb with the other component at 0)): 20000 µg/mL
